The data set can be described thus: carrier reorganization in simulated gastric fluid and aspirin partitioning (Examples 2 and 3). The class given is physicochemical. The protocol:
5 grams of the composition is added to a beaker equipped with a magnetic stirrer and 50 mL of simulated gastric fluid is added with stirring. […] To this material, a 1 N solution of sodium hydroxide is added slowly to bring the pH up to about pH 7 with stirring. Raising the pH to pH 7 gives rise to a change in the carrier in a high pH environment. To this material, a 1 N solution of hydrochloride acid is added slowly until the pH is lowered to the pH of the simulated gastric fluid. It is expected that the carrier will reorganize. […] Thus, a carrier comprising a sufficient amount of a fatty acid in a triglyceride is capable of reorganization and absorption of a BAI from the low pH fluid, here simulated gastric fluid. 5 grams of the composition is added to a beaker equipped with a magnetic stirrer and 50 mL of simulated gastric fluid is added with stirring. […] To this material, a 1 N solution of sodium hydroxide is added slowly to bring the pH up to about pH 7 with stirring showing the change in the carrier in a high pH environment and the release of aspirin into the high pH environment. To this material, a 1 N solution of hydrochloride acid is added slowly until the pH is lowered to the pH of the simulated gastric fluid. […]

For `CC(=O)Oc1ccccc1C(=O)O` [aspirin], the “aspirin partitioning between reorganized carrier and simulated gastric fluid” value was “partitions between the reorganized carrier and the simulated gastric fluid” (Example 2: 10 g powdered aspirin added after oleic acid/soybean oil carrier was cycled low pH - pH 7 - low pH); “partitions between the reorganized carrier and the simulated gastric fluid” (Example 3: carrier (oleic acid/soybean oil) and aspirin 1:1, cycled low pH - pH 7 - low pH).

The values above are taken from patent publication US11771708B2, “Pharmaceutical carriers capable of pH dependent reconstitution and methods for making and using same” (Greenwood Brands, LLC, priority 2020, dated 2023).
